The numbers were not newly measured in patent US20190070210A1, “COMPOSITION AND METHODS FOR CONDITIONS ASSOCIATED WITH CHRONIC PULMONARY OBSTRUCTIVE DISEASE” (priority 2017, published 2019), which cites them from elsewhere.

The conditions of the data set: solution, 4° C. and neutral pH.

Each structure is given as a SMILES string.

Regarding `NC(=O)c1ccc[n+]([C@@H]2O[C@H](COP(=O)([O-])OP(=O)(O)OC[C@H]3O[C@@H](n4cnc5c(N)ncnc54)[C@H](O)[C@@H]3O)[C@@H](O)[C@H]2O)c1` [NAD+, nicotinamide adenine dinucleotide], the “time for which solutions are stable” value was “about a week”.
